One compound from article PMC2905628 (Molecular cancer therapeutics, 2010) can be followed below.

The term IC50 denotes the concentration at which inhibition is half-maximal. A higher IC50 goes with lower potency.

For this assay, the target named is T1, protein kinase D2 (PKD2) (Homo sapiens, UniProt Q9BZL6).
T1 sequence (Q9BZL6 1-878): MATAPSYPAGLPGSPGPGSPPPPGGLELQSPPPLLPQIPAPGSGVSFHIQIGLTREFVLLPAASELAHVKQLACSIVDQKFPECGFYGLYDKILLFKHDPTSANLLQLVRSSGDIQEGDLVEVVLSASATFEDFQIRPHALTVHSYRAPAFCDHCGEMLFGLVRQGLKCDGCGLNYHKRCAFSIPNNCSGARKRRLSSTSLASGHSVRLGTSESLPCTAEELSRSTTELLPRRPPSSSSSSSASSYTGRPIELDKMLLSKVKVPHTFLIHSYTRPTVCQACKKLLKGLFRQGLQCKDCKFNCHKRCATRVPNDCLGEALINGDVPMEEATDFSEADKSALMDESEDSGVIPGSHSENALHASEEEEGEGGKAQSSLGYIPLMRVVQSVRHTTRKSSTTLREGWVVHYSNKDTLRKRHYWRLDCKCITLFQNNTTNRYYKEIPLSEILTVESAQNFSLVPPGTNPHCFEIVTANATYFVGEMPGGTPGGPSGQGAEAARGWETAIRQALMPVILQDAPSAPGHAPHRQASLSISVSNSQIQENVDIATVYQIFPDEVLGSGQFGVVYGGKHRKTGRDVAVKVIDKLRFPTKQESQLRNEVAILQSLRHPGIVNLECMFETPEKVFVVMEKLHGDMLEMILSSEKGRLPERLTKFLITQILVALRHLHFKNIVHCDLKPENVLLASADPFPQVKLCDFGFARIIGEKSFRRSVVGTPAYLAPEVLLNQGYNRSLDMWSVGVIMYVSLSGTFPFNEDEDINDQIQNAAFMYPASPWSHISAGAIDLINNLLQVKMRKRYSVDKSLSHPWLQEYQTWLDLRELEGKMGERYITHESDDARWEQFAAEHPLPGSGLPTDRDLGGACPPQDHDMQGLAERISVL
The assay can be described thus: IMAP fluorescence polarization kinase assay, peptide substrate phosphorylation. Format: biochemical.

The compound `CC[C@@H](N)CNc1ccnc(-c2cc(-c3cnn(C)c3)ccc2O)n1` [CRT0066101] displayed an IC50 of 2.5 nM.
